Results from US12133855B2, “Lipid-like nanocomplexes and uses thereof” (Trustees of Tufts College, priority 2018, dated 2024).
Where two headings read alike, the source gives them in different places.

How the values were obtained:
[1] = Storage stability of LNPs (time-dependent DLS, DiO/DiI FRET); assay type: physicochemical; details: DiO and DiI encapsulated LNPs, 7 days of storage
Protocol: The morphologies of LNPs were further studied by the transmission electron microscopy (TEM). […] Subsequently, the stability of LNPs thus prepared was examined by DLS and fluorescence measurements.
The cell (HeLa and HeLa-DsRed cell lines) internalization studies were conducted using small molecular hydrophobic (nile red) and hydrophilic (calcein) fluorescent dyes and macromolecular fluorescent recombinant protein ((−30)GFP-Cre) loaded OCholB LNPs. The stabilities of cargo-loaded LNPs were examined at first using time-dependent DLS and fluorescence measurements.

HeLa-DsRed cells [2] = assay type: cell-based; details: for cell viability: 8 h exposure, MTT after 24 h; for cell morphology changes: bright field images
Protocol: All experiments were performed in quadruplicate.
(§1) In this context, the internalization mechanism of the (−30)GFP-Cre/LNPs complexes was studied at first, by introducing different endocytosis inhibitors, i.e., sucrose (clathrin-mediated endocytosis inhibitor), methyl-β-cyclodextrin (M-β-CD, cholesterol-depleting agent), dynasore (dynamin II inhibitor) and nystatin (caveolin-mediated endocytosis inhibitor), following our previously reported procedures. […] Comparing to other combinatorial library studies, it is clear that even loaded with same cargoes and tested against same cell line, different lipidoids with different chemical structures could be internalized through very distinct pathways. Next, the genome-editing efficiencies of (−30)GFP-Cre/LNPs were determined by flow cytometry after 24 h of incubation (with 8 h of (−30)GFP-Cre/LNPs complex exposure). Three different concentrations of protein/lipidoid complexes (25 nM/1.7 μg mL^−1, 50 nM/3.4 μg mL^−1, and 100 nM/6.6 μg mL^−1) were tested for each lipidoid nanoparticle. […] For example, the DsRed^+ cells were recorded as 10.5%/24.9%/88.9%, 13.5%/55.4%/88.8%, and 27.7%/47.8%/94.7% for (−30)GFP-Cre loaded 75-OCholB, 76-OCholB and 77-OCholB, respectively, at the protein concentration of 25, 50 and 100 nM. […] Then, the cytotoxicity profiles of (−30)GFP-Cre/LNPs, (−30)GFP-Cre/Lpf2k and naked (−30)GFP-Cre at different concentrations against HeLa-DsRed cells (8 h of exposure; (−30)GFP-Cre/LNPs=25 nM/1.7 μg mL^−1, 50 nM/3.4 μg mL^−1, and 100 nM/6.6 μg mL^−1) are measured using MTT assay after 24 h of incubation. […] For (−30)GFP-Cre/75-OCholB treated cells, the viabilities were determined to be 95.5%, 91.8% and 83.1%, at the protein concentration of 25, 50 and 100 nM, respectively; the numbers for (−30)GFP-Cre/76-OCholB and (−30)GFP-Cre/77-OCholB are 97.8%/98.2%/97.2 and 100.9%/96.6%/98.6%. […] Meanwhile, the morphology changes of HeLa-DsRed cell treated with different nanoparticle formulations were studied and the results are shown in FIG. 15E. […] Samples found in upper left quadrant are non-toxic and inefficient for delivery; samples in lower left quadrant are toxic and inefficient; samples in lower right quadrant are efficient but toxic; samples in upper right quadrant are non-toxic and efficient, which would be top candidates for further study. It is clear that Lpf2k (shown in dotted purple circle) at high concentration is relatively efficient for genome editing, while also toxic to the target cells. On the other hand, most of the (−30)GFP-Cre loaded OCholB LNPs are almost non-toxic when compared to (−30)GFP-Cre/Lpf2k, similar to naked (−30)GFP-Cre protein. 87-OCholB, 90-OCholB and 304-OCholB (shown in dotted dark blue circle) are less efficient for genome-editing; while high genome editing efficacy and excellent tolerability were achieved by using 75-OCholB, 76-OCholB and 77-OCholB (shown in dotted green circle).

HeLa-DsRed cells [3] = assay: Genome editing efficiency of (−30)GFP-Cre/OCholB LNPs (DsRed+ cells); assay type: cell-based; details: for DsRed^+ cells: 8 h exposure, 24 h incubation
Excerpt: as §1

[4] = tested on: Jurkat (human T lymphocyte cells); assay: GFP mRNA delivery (GFP+ cells); assay type: cell-based; details: LNP/mRNA=10/1, [mRNA]=0.86 μg mL^−1, 24 h
Protocol: To examine the delivery spectrum of the newly developed LNPs, the GFP mRNA loaded OCholB LNPs were then challenged against other four types of cell lines. B16F10 (mouse melanoma cells), HEK 293 (human embryonic kidney cells), NIH 3T3 (mouse embryonic fibroblast cells) and Jurkat (human T lymphocyte cells) cells were tested (LNP/mRNA=10/1; [mRNA]=0.86 μg mL^−1; 24 h exposure) and the results are shown in FIG. 14D. As the positive control, Lpf2k turned out to be very efficient to deliver GFP mRNA into B16F10 (63.2% of GFP^+ cells), HEK 293 (80.1%) and NIH 3T3 (70.1%) cells, while slightly less efficient to Jurkat cell (28.7%), which is usually considered to be one of the most difficult-to-transfect cell lines. […] For example, 63.0%, 60.9%, 54.1% and 50.1% of GFP^+ cells were determined from mRNA/75-OCholB treated B16F10, HEK 293, NIH 3T3 and Jurkat cells; and the numbers for mRNA/76-OCholB treated cells were 70.7%, 75.8%, 24.1% and 7.7%, respectively. It was obvious that not only the types of lipidoids, but also the target cell lines could have huge impacts on the delivery efficacy. Overall, the positive control, Lpf2k, is a relatively high-activity broad-spectrum transfection reagent; most of the OCholB LNPs (6 out of 9) are also effective broad-spectrum transfection reagents under the tested conditions. […] It was expected that through further formulation optimization, such as adding excipients (helper lipids like small molecular phospholipids (e.g. DOPE and DSPC) and macromolecules lipids (e.g. PEG-DSPE and PEG-Ceramide)) into the LNPs and/or using more controllable self-assembly procedures, improved transfection efficiency of the fully substituted OCholB LNPs could be achieved.

[5] = (−30)GFP-Cre 25 nM/1.7 μg mL^−1
[6] = (−30)GFP-Cre 50 nM/3.4 μg mL^−1
[7] = (−30)GFP-Cre 100 nM/6.6 μg mL^−1
[8] = protein/lipidoid 25 nM/1.7 μg mL^−1
[9] = protein/lipidoid 50 nM/3.4 μg mL^−1
[10] = protein/lipidoid 100 nM/6.6 μg mL^−1

SMILES	FRET ratio (I575/I575+I505) variations [1]	cell viability (HeLa-DsRed cells [2]; [5]) [%]	cell viability (HeLa-DsRed cells [2]; [6]) [%]	cell viability (HeLa-DsRed cells [2]; [7]) [%]	cell morphology changes (HeLa-DsRed cells [2])	DsRed^+ cells (HeLa-DsRed cells [3]; [8]) [%]	DsRed^+ cells (HeLa-DsRed cells [3]; [9]) [%]	GFP^+ cells [4]	GFP^+ cells ([4]; listed as mRNA/75-OCholB) [%]	DsRed^+ cells (HeLa-DsRed cells [3]; [10])	genome editing efficacy (DsRed^+ cells), overall (HeLa-DsRed cells [3]; (−30)GFP-Cre 25, 50 and 100 nM)
CC(C)CCCC(C)C1CCC2C3CC=C4CC(OC(=O)NCCSSCCOC(=O)CCN(CCC(=O)OCCSSCCNC(=O)OC5CCC6(C)C(=CCC7C6CCC6(C)C(C(C)CCCC(C)C)CCC76)C5)CCN5CCCC5)CCC4(C)C3CCC12C (stereo not drawn) [Lipidoid 76-OCholB]	negligible variations	97.8	98.2	97.2	less affected	13.5	55.4	7.7%	–	–	–
CCN(CC)CCN(CCC(=O)OCCSSCCNC(=O)OC1CCC2(C)C(=CCC3C2CCC2(C)C(C(C)CCCC(C)C)CCC32)C1)CCC(=O)OCCSSCCNC(=O)OC1CCC2(C)C(=CCC3C2CCC2(C)C(C(C)CCCC(C)C)CCC32)C1 (stereo not drawn) [Lipidoid 75-OCholB]	negligible variations	95.5	91.8	83.1	less affected	10.5	24.9	particular advantages over Lpf2k	50.1	–	–
CC(C)CCCC(C)C1CCC2C3CC=C4CC(OC(=O)NCCSSCCOC(=O)CCN(CCCN(C)C)CCC(=O)OCCSSCCNC(=O)OC5CCC6(C)C(=CCC7C6CCC6(C)C(C(C)CCCC(C)C)CCC76)C5)CCC4(C)C3CCC12C (stereo not drawn) [Lipidoid 80-OCholB]	–	–	–	–	–	–	–	–	–	out-performed Lpf2k	–
CCN(CC)CCCN(CCC(=O)OCCSSCCNC(=O)OC1CCC2(C)C(=CCC3C2CCC2(C)C(C(C)CCCC(C)C)CCC32)C1)CCC(=O)OCCSSCCNC(=O)OC1CCC2(C)C(=CCC3C2CCC2(C)C(C(C)CCCC(C)C)CCC32)C1 (stereo not drawn) [Lipidoid 81-OCholB]	–	–	–	–	–	–	–	–	–	out-performed Lpf2k	–
CC(C)CCCC(C)C1CCC2C3CC=C4CC(OC(=O)NCCSSCCOC(=O)CCN(CCC(=O)OCCSSCCNC(=O)OC5CCC6(C)C(=CCC7C6CCC6(C)C(C(C)CCCC(C)C)CCC76)C5)CCN(C)C)CCC4(C)C3CCC12C (stereo not drawn) [Lipidoid 78-OCholB]	–	–	–	–	–	–	–	particular advantages over Lpf2k	–	out-performed Lpf2k	–
CC(C)CCCC(C)C1CCC2C3CC=C4CC(OC(=O)NCCSSCCOC(=O)CCN(CCC(=O)OCCSSCCNC(=O)OC5CCC6(C)C(=CCC7C6CCC6(C)C(C(C)CCCC(C)C)CCC76)C5)CCC5CCCN5C)CCC4(C)C3CCC12C (stereo not drawn) [Lipidoid 77-OCholB]	negligible variations	100.9	96.6	98.6	less affected	27.7	47.8	particular advantages over Lpf2k	–	–	–
CC(C)CCCC(C)C1CCC2C3CC=C4CC(OC(=O)NCCSSCCOC(=O)CCN(C)CCN(CCN(C)CCC(=O)OCCSSCCNC(=O)OC5CCC6(C)C(=CCC7C6CCC6(C)C(C(C)CCCC(C)C)CCC76)C5)CCN(C)CCC(=O)OCCSSCCNC(=O)OC5CCC6(C)C(=CCC7C6CCC6(C)C(C(C)CCCC(C)C)CCC76)C5)CCC4(C)C3CCC12C (stereo not drawn) [Lipidoid 304-OCholB]	–	–	–	–	–	–	–	–	–	–	less efficient at delivery
